target: T1, mGluR2 receptor (metabotropic glutamate receptor 2) (Homo sapiens, UniProt Q14416); experiment: mGluR2 potentiator screen (FLIPR, EC10-EC20 glutamate challenge); format: cell-based; settings: geometric mean; read-out: mGluR 2 EC50 (geometric mean);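 note: HEK cells stably expressing human mGluR2 with GL15 G protein, Fluo-4 calcium fluorescence read on FLIPR, compounds added before an EC10-EC20 glutamate challenge to detect potentiation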
T1 construct: expressed in transfected cells
T1 sequence (Q14416 19-872, species assumed): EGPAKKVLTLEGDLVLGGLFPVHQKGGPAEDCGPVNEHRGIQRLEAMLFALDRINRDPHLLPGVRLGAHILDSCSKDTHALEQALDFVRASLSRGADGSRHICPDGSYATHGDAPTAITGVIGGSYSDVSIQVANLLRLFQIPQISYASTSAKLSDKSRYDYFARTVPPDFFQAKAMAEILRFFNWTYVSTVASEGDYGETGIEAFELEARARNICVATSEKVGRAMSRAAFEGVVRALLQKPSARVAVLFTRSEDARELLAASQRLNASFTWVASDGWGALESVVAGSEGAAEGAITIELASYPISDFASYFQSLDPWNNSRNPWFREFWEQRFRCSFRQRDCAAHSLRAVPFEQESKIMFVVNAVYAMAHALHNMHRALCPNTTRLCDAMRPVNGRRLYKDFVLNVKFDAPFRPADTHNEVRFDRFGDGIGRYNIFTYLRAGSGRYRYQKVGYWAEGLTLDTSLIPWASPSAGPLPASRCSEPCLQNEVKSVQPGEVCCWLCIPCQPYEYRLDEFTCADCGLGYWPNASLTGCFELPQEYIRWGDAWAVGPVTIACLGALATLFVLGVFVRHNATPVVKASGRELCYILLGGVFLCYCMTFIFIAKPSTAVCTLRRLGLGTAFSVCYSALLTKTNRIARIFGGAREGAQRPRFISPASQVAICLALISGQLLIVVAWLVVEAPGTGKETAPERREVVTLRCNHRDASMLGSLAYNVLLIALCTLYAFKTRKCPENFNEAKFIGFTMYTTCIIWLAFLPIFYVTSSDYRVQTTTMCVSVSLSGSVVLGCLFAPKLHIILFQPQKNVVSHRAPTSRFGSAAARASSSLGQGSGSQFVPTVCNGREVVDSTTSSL

| SMILES | EC50 [nM] |
| --- | --- |
| C[C@@H]1CN(Cc2ccc(OCC3CCC(NC4CCC4)CC3)cc2)C(=O)O1 (stereo partly drawn) [Example 297, (5R)-3-(4-{[4-(Cyclobutylamino)cyclohexyl]methoxy}benzyl)-5-methyl-1,3-oxazolidin-2-one] | 1990 |
| C[C@@H]1CN(Cc2ccc(-c3ccc(Cl)cc3Cl)nc2)C(=O)O1 [Example 269] | 518 |
| CC1CN(Cc2ccc(OCCc3cccc(Cl)c3)cc2)C(=O)O1 (centres unmarked) [Example 99] | 115 |
| Cc1ccc(F)c(COc2ccc(CN3CC(C)OC3=O)cc2)c1 (centres unmarked) [Example 150] | 101 |
| CC(Oc1ccc(CN2CCN(C3CC[C@@H](C)C3)CC2=O)cc1)C1CCCCC1 (some centres unmarked) [Example 224] | 1100 |
| C[C@@H]1CN(Cc2ccc(-c3ccc(F)cc3F)c(F)c2)C(=O)O1 [Example 288] | 36.9 |
| COc1ccc(-c2ccc(CN3C[C@@H](C)OC3=O)cc2F)c(F)c1F [Example 293] | < 59.9 |
| CC1CN(Cc2ccc(OCc3ccc(Cl)cc3F)cc2)C(=O)O1 (centres unmarked) [Example 88] | 66.6 |
| CC(C)COc1ccc(CN2CC(C)(C)COC2=O)cc1 [Example 16] | 663 |
| CC1CN(Cc2ccc(OCCCc3ccccc3)cc2)C(=O)O1 (centres unmarked) [Example 104] | 37.9 |
| COc1cc(F)ccc1-c1ccc(CN2C[C@@H](C)OC2=O)cc1 [Example 239] | < 105 |
| C[C@@H]1CN(Cc2ccc(O[C@@H](C)c3ccccc3)cc2)C(=O)O1 [Example 69] | 173 |
| CC1CN(Cc2ccc(OCCc3ccc(C#N)cc3)cc2)C(=O)O1 (centres unmarked) [Example 109] | 219 |
| C[C@@H]1CN(Cc2ccc(-c3cccc(F)c3F)cc2)C(=O)O1 [Example 244] | 97.2 |
| C[C@@H]1CN(Cc2ccc(-c3cc4ccccc4o3)cc2)C(=O)O1 [Example 157] | < 32.5 |
| C[C@@H]1CN(Cc2ccc(O[C@H](C)c3ccccc3)cc2)C(=O)O1 [Example 67, (5R)-5-methyl-3-{4-[(1R)-1-phenylethoxy]benzyl}-1,3-oxazolidin-2-one] | 240 |
| CC1CN(Cc2ccc(OCc3ccc(-n4cccn4)cc3)cc2)C(=O)O1 (centres unmarked) [Example 131] | 125 |
| C[C@@H]1CN(Cc2ccc3c(c2)Cc2ccccc2-3)C(=O)O1 [Example 185] | 625 |
| CC1(C)CN(Cc2ccc(-c3ccc(F)cc3F)cc2)C(=O)O1 [Example 314] | 18 |

Continued by falling EC50, values first:

| EC50 [nM] | SMILES |
| --- | --- |
| 1890 | CC1CN(Cc2ccc(OC(C)C3CC3)cc2)C(=O)O1 (centres unmarked) [Example 135] |
| 725 | CCN1CCN(Cc2ccc(OC(C)C3CCCCC3)cc2)C(=O)C1 (centres unmarked) [Example 188, 1-[4-(1-cyclohexylethoxy)benzyl]-4-ethylpiperazin-2-one] |
| 514 | CC(=O)c1cccc(-c2ccc(CN3C[C@@H](C)OC3=O)cc2)c1 [Example 193] |
| 489 | C[C@@H]1CN(Cc2ccc(-c3ccc(N(C)C)nc3)cc2)C(=O)O1 [Example 155] |
| 445 | C[C@@H]1CN(Cc2ccc(-c3cc(F)cc(F)c3)cc2)C(=O)O1 [Example 246] |
| 282 | CC1CN(Cc2ccc(OCCc3ccccc3)cc2)C(=O)O1 (centres unmarked) [Example 102] |
| 243 | CC1CN(Cc2ccc(OCc3ccc(F)cc3)cc2)C(=O)O1 (centres unmarked) [Example 110] |
| 159 | CC(C)Oc1ccc(-c2ccc(CN3C[C@@H](C)OC3=O)cn2)c(F)c1 [Example 279] |
| 141 | C[C@H]1CN(Cc2ccc(-c3ccc(C(F)(F)F)cc3)cc2)C(=O)O1 [Example 63, (5S)-5-methyl-3-{[4′-(trifluoromethyl)biphenyl-4-yl]methyl}-1,3-oxazolidin-2-one] |
| 116 | C[C@@H]1CN(Cc2ccc(-c3ccc(Cl)c(Cl)c3)nc2)C(=O)O1 [Example 261] |
| 94.5 | C[C@@H]1CN(Cc2ccc(CN3CCc4cc(Cl)ccc43)cc2)C(=O)O1 [Example 300, (5R)-3-{4-[(5-Chloro-2,3-dihydro-1H-indol-1-yl)methyl]benzyl}-5-methyl-1,3-oxazolidin-2-one] |
| 63.5 | CC(Oc1ccc(CN2CC(c3ccccn3)OC2=O)cc1)C1CCCCC1 (centres unmarked) [Example 207] |
| 24.1 | Cc1ccc(C(C)Oc2ccc(CN3CC(C)OC3=O)cc2)cc1 (centres unmarked) [Example 125] |
